Like-named read-outs stand apart in the source and are kept apart here.
Tests used:
[1] = target: T1, catalytic domain of human Bub1 (amino acids 704-1085) (Homo sapiens, UniProt O43683); experiment: Bub1 kinase assay (TR-FRET); type: biochemical; conditions: ATP 10 μM, peptide substrate 1 μM, 60 min at 22° C.
T1 construct: catalytic domain of human Bub1 (amino acids 704-1085); His6 (N); made in house; host or cells: Hi5 insect cells
Protocol: To this end, 100-fold concentrated compound solutions (in DMSO) were previously prepared by serial dilution (1:3.4) of 2 mM stocks in a clear low volume 384-well source microtiter plate (Greiner Bio-One, Frickenhausen, Germany), from which 50 nl of compounds were transferred into a black low volume test microtiter plate from the same supplier. […] The resulting mixture (5 μl final volume) was incubated at 22° C. during 60 min., and the reaction was stopped by the addition of 5 μl of an aqueous EDTA-solution (50 mM EDTA, in 100 mM HEPES pH 7.5 and 0.2% (w/v) bovine serum albumin) which also contained the TR-FRET detection reagents (0.2 μM streptavidin-XL665 [Cisbio Bioassays, Codolet, France] and 1 nM anti-phosho-Serine antibody [Merck Millipore, cat. #35-001] and 0.4 nM LANCE EU-W1024 labeled anti-mouse IgG antibody [Perkin-Elmer, product no. AD0077, alternatively a Terbium-cryptate-labeled anti-mouse IgG antibody from Cisbio Bioassays can be used]). The stopped reaction mixture was further incubated 1 h at 22° C. in order to allow the formation of complexes between peptides and detection reagents. Subsequently, the amount of product was evaluated by measurement of the resonance energy transfer from the Eu-chelate-antibody complex recognizing the Phosphoserine residue to the streptavidin-XL665 bound to the biotin moiety of the peptide. […] IC50 values were calculated by fitting the normalized inhibition data to a 4-parameter logistic equation (Minimum, Maximum, IC50, Hill; Y=Max+(Min−Max)/(1+(X/IC50)Hill)).

[2] = system: HeLa cell line; experiment: Proliferation assay (HeLa cell line);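 further: crystal violet staining of cell number, absorbance read at 595 nm, compounds tested at 0.001–10 µM, zero-point plate taken as 0% and untreated cells as 100%, four-parameter fit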
Protocol: Cultivated tumor cells (cells were ordered from ATCC, except HeLa-MaTu and HeLa-MaTu-ADR, which were ordered from EPO-GmbH, Berlin) were plated at a density of 1000 to 5000 cells/well, depending on the growth rate of the respective cell line, in a 96-well multititer plate in 200 μL of their respective growth medium supplemented 10% fetal calf serum. After 24 hours, the cells of one plate (zero-point plate) were stained with crystal violet (see below), while the medium of the other plates was replaced by fresh culture medium (200 μl), to which the test substances were added in various concentrations (0 μM, as well as in the range of 0.001-10 μM; the final concentration of the solvent dimethyl sulfoxide was 0.5%). The cells were incubated for 4 days in the presence of test substances. Cell proliferation was determined by staining the cells with crystal violet: the cells were fixed by adding 20 μl/measuring point of an 11% glutaric aldehyde solution for 15 minutes at room temperature. After three washing cycles of the fixed cells with water, the plates were dried at room temperature. The cells were stained by adding 100 μl/measuring point of a 0.1% crystal violet solution (pH 3.0). After three washing cycles of the stained cells with water, the plates were dried at room temperature. The dye was dissolved by adding 100 μl/measuring point of a 10% acetic acid solution. Absorption was determined by photometry at a wavelength of 595 nm. The change of cell number, in percent, was calculated by normalization of the measured values to the absorption values of the zero-point plate (=0%) and the absorption of the untreated (0 μm) cells (=100%). The IC50 values were determined by means of a 4 parameter fit.

[3] = TR-FRET, read-out: Biological Assay 1: Bub1 kinase assay median IC50
[4] = Homo sapiens, HeLa, 96 h, read-out: Biological Assay 2: Proliferation assay (HeLa cell line) median IC50, HeLa cells, 4 days incubation, crystal violet staining
[5] = Biological Assay 1: Bub1 kinase assay median IC50, TR-FRET
[6] = Homo sapiens, HeLa, 96 h, read-out: Biological Assay 2: Proliferation assay (HeLa cell line) median IC50

T1 sequence (O43683 704-1085): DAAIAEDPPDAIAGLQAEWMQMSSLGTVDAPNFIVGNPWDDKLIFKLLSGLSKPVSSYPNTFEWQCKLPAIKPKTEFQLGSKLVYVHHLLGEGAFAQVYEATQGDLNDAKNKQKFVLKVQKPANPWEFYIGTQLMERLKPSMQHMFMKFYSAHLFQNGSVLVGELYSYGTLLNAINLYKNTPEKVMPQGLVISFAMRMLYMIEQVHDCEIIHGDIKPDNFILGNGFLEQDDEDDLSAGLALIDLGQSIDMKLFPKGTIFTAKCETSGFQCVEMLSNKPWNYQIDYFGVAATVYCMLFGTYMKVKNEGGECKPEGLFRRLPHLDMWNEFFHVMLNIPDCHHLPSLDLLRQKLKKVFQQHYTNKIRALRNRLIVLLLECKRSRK

| IC50 [1, 3] [nM] | IC50 [2, 6] [nM] | SMILES | other results |
| --- | --- | --- | --- |
|  | 7380 | CCOc1cc(F)c(Cn2nc(-c3ncc(OC)c(Nc4ccncc4)n3)c(C)c2OC)c(F)c1 [Example 2-1-1, 2-[1-(4-ethoxy-2,6-difluorobenzyl)-5-methoxy-4-methyl-1H-pyrazol-3-yl]-5-methoxy-N-(pyridin-4-yl)pyrimidin-4-amine] | IC50 [1, 5]: 6.14 nM |
| 5.76 | > 10000 | COc1cnc(-c2nn(Cc3c(Cl)cccc3Cl)c(C3CC3)c2C)nc1Nc1ccncc1 [Example 2-1-9, 2-[5-cyclopropyl-1-(2,6-dichlorobenzyl)-4-methyl-1H-pyrazol-3-yl]-5-methoxy-N-(pyridin-4-yl)pyrimidin-4-amine] |  |
| 36.5 | 3490 | COc1cnc(-c2nn(Cc3ccccc3F)c(C3CC3)c2C)nc1Nc1ccncc1 [Example 2-1-10, 2-[5-cyclopropyl-1-(2-fluorobenzyl)-4-methyl-1H-pyrazol-3-yl]-5-methoxy-N-(pyridin-4-yl)pyrimidin-4-amine] |  |
|  | 9350 | CCOc1cc(F)c(Cn2nc(-c3ncc(C#N)c(Nc4ccncc4)n3)c(C)c2C2CC2)c(F)c1 [Example 2-6-3, 2-[5-cyclopropyl-1-(4-ethoxy-2,6-difluorobenzyl)-4-methyl-1H-pyrazol-3-yl]-4-(pyridin-4-ylamino)pyrimidine-5-carbonitrile] |  |
| 8.62 |  | COc1cnc(-c2nn(Cc3c(F)cc(C4CC4)cc3F)c(C3CC3)c2C)nc1Nc1ccncc1 [Example 2-7-1, 2-[5-cyclopropyl-1-(4-cyclopropyl-2,6-difluorobenzyl)-4-methyl-1H-pyrazol-3-yl]-5-methoxy-N-(pyridin-4-yl)pyrimidin-4-amine] |  |
| 6.79 |  | COc1cnc(-c2nn(Cc3c(F)cc(OC(F)F)cc3F)c(C3CC3)c2C)nc1Nc1ccncc1 [Example 2-10-1, 2-{5-cyclopropyl-1-[4-(difluoromethoxy)-2,6-difluorobenzyl]-4-methyl-1H-pyrazol-3-yl}-5-methoxy-N-(pyridin-4-yl)pyrimidin-4-amine] |  |

More lines, now with the values behind:

| SMILES | IC50 [1, 3] [nM] | IC50 [2, 6] [nM] | other results |
| --- | --- | --- | --- |
| CCOc1cc(F)c(Cn2nc(-c3ncc(OCC[S+](C)[O-])c(Nc4ccncc4)n3)c(C)c2C2CC2)c(F)c1 (racemic) [Example 2-8-1, 2-[5-cyclopropyl-1-(4-ethoxy-2,6-difluorobenzyl)-4-methyl-1H-pyrazol-3-yl]-5-[2-(methylsulfinyl)ethoxy]-N-(pyridin-4-yl)pyrimidin-4-amine] | 4.19 |  | IC50 [2, 4]: 3930 nM |
| CCOc1cc(F)c(Cn2nc(-c3ncc(OCC4CCC(=O)N4)c(Nc4ccncc4)n3)c(C)c2C2CC2)c(F)c1 (single isomer, unassigned; enantiomer 1) [Example 2-3-6, 5-[({2-[5-cyclopropyl-1-(4-ethoxy-2,6-difluorobenzyl)-4-methyl-1H-pyrazol-3-yl]-4-(pyridin-4-ylamino)pyrimidin-5-yl}oxy)methyl]pyrrolidin-2-one enantiomer 1] | 8.14 |  | IC50 [2, 4]: 2970 nM |
| CCOc1cc(F)c(Cn2nc(-c3ncc(OCC[S+](C)[O-])c(Nc4ccncc4)n3)c(C)c2C2CC2)c(F)c1 (single isomer, unassigned; enantiomer 1) [Example 2-8-2, 2-[5-cyclopropyl-1-(4-ethoxy-2,6-difluorobenzyl)-4-methyl-1H-pyrazol-3-yl]-5-[2-(methylsulfinyl)ethoxy]-N-(pyridin-4-yl)pyrimidin-4-amine enantiomer 1] | 3.96 |  |  |
| CCOc1cc(F)c(Cn2nc(-c3ncc(OCC4CCC(=O)N4)c(Nc4ccncc4)n3)c(C)c2C2CC2)c(F)c1 (single isomer, unassigned; enantiomer 2) [Example 2-3-7, 5-[({2-[5-cyclopropyl-1-(4-ethoxy-2,6-difluorobenzyl)-4-methyl-1H-pyrazol-3-yl]-4-(pyridin-4-ylamino)pyrimidin-5-yl}oxy)methyl]pyrrolidin-2-one enantiomer 2] | 12.1 |  | IC50 ([2]; read-out: Biological Assay 2: Proliferation assay (HeLa cell line) median IC50, HeLa cells, 4 days incubation, crystal violet staining): 2890 nM |
| CCOc1cc(F)c(Cn2nc(-c3ncc(OCC[S+](C)[O-])c(Nc4ccncc4)n3)c(C)c2C2CC2)c(F)c1 (single isomer, unassigned; enantiomer 2) [Example 2-8-3, 2-[5-cyclopropyl-1-(4-ethoxy-2,6-difluorobenzyl)-4-methyl-1H-pyrazol-3-yl]-5-[2-(methylsulfinyl)ethoxy]-N-(pyridin-4-yl)pyrimidin-4-amine enantiomer 2] | 6.17 |  |  |
| COc1cnc(-c2cc(N(C)C)n(Cc3ccccc3F)n2)nc1Nc1ccncc1 [Example 2-1-2, 2-[5-(dimethylamino)-1-(2-fluorobenzyl)-1H-pyrazol-3-yl]-5-methoxy-N-(pyridin-4-yl)pyrimidin-4-amine] | 1150 | > 10000 |  |
| COc1cnc(-c2cc(OC)n(Cc3ccccc3F)n2)nc1Nc1ccncc1 [Example 2-1-3, 2-[1-(2-fluorobenzyl)-5-methoxy-1H-pyrazol-3-yl]-5-methoxy-N-(pyridin-4-yl)pyrimidin-4-amine] | 381 | > 10000 |  |
| CCOc1cc(-c2ncc(OC)c(Nc3ccncc3)n2)nn1Cc1ccccc1F [Example 2-1-4, 2-[5-ethoxy-1-(2-fluorobenzyl)-1H-pyrazol-3-yl]-5-methoxy-N-(pyridin-4-yl)pyrimidin-4-amine] | 638 | > 10000 |  |
| COc1cnc(-c2cc(C3CC3)n(Cc3ccccc3)n2)nc1Nc1ccncc1 [Example 2-1-5, 2-(1-benzyl-5-cyclopropyl-1H-pyrazol-3-yl)-5-methoxy-N-(pyridin-4-yl)pyrimidin-4-amine] | 516 | > 10000 |  |
| C=Cc1cc(-c2ncc(OC)c(Nc3ccncc3)n2)nn1Cc1ccccc1 [Example 2-1-6, 2-(1-benzyl-5-ethenyl-1H-pyrazol-3-yl)-5-methoxy-N-(pyridin-4-yl)pyrimidin-4-amine] | 517 | > 10000 |  |
| COc1cnc(-c2cc(OC)n(Cc3ccccc3F)n2)nc1Nc1ccncc1C#N [Example 2-1-7, 4-({2-[1-(2-fluorobenzyl)-5-methoxy-1H-pyrazol-3-yl]-5-methoxypyrimidin-4-yl}amino)pyridine-3-carbonitrile] | 1420 | > 10000 |  |
| COc1ccc(Cn2nc(-c3ncc(OC)c(Nc4ccncc4)n3)cc2C2CC2)cc1 [Example 2-1-8, 2-[5-cyclopropyl-1-(4-methoxybenzyl)-1H-pyrazol-3-yl]-5-methoxy-N-(pyridin-4-yl)pyrimidin-4-amine] | 73.8 | > 10000 |  |
| COc1cnc(-c2nn(Cc3c(Cl)cccc3Cl)c(OC)c2C)nc1Nc1ccncc1 [Example 2-1-11, 2-[1-(2,6-dichlorobenzyl)-5-methoxy-4-methyl-1H-pyrazol-3-yl]-5-methoxy-N-(pyridin-4-yl)pyrimidin-4-amine] | 7.86 | 2740 |  |
| CCOc1cc(F)c(Cn2nc(-c3ncc(O)c(Nc4ccncc4)n3)c(C)c2C2CC2)c(F)c1 [Example 2-2-1, 2-[5-cyclopropyl-1-(4-ethoxy-2,6-difluorobenzyl)-4-methyl-1H-pyrazol-3-yl]-4-(pyridin-4-ylamino)pyrimidin-5-ol] |  |  | IC50 [1, 5]: 6.2 nM |
| COc1ccc(Cn2nc(-c3ncc(OC)c(Nc4ccncc4)n3)c(C)c2C2CC2)cc1 [Example 2-6-1, 2-[5-cyclopropyl-1-(4-methoxybenzyl)-4-methyl-1H-pyrazol-3-yl]-5-methoxy-N-(pyridin-4-yl)pyrimidin-4-amine] | 15.1 |  |  |
| CCOc1cc(F)c(Cn2nc(-c3ncc(OC)c(Nc4ccncc4)n3)c(C)c2N(C)C)c(F)c1 [Example 2-6-2, 2-[5-(dimethylamino)-1-(4-ethoxy-2,6-difluorobenzyl)-4-methyl-1H-pyrazol-3-yl]-5-methoxy-N-(pyridin-4-yl)pyrimidin-4-amine] |  |  | IC50 [1, 5]: 12.6 nM |
| CCOc1cc(F)c(Cn2nc(-c3ncc(OC)c(Nc4ccncc4C#N)n3)c(C)c2C2CC2)c(F)c1 [Example 2-6-4, 4-({2-[5-cyclopropyl-1-(4-ethoxy-2,6-difluorobenzyl)-4-methyl-1H-pyrazol-3-yl]-5-methoxypyrimidin-4-yl}amino)nicotinonitrile] |  |  | IC50 [1, 5]: 48.6 nM |
| CCOC(=O)c1cnccc1Nc1nc(-c2nn(Cc3c(F)cc(OCC)cc3F)c(C3CC3)c2C)ncc1OC [Example 2-6-5, ethyl 4-({2-[5-cyclopropyl-1-(4-ethoxy-2,6-difluorobenzyl)-4-methyl-1H-pyrazol-3-yl]-5-methoxypyrimidin-4-yl}amino)nicotinate] |  |  | IC50 [1, 5]: 27.4 nM |
| CCOc1cc(F)c(Cn2nc(-c3ncc(OC)c(Nc4ccncc4C(=O)O)n3)c(C)c2C2CC2)c(F)c1 [Example 2-11-1, 4-({2-[5-cyclopropyl-1-(4-ethoxy-2,6-difluorobenzyl)-4-methyl-1H-pyrazol-3-yl]-5-methoxypyrimidin-4-yl}amino)nicotinic acid] |  |  | IC50 [1, 5]: 26.8 nM |

From patent US9643953B2, “Substituted benzylpyrazoles” (Bayer Intellectual Property GmbH, priority 2011, dated 2017)
